The record followed here is patent publication US8987276B2, “Substituted triazolyl piperazine and triazolyl piperidine derivatives as gamma secretase modulators” (Janssen Pharmaceuticals, Inc., priority 2011, dated 2015).

Structures can show the parent of a compound that is named as a salt.

Series [1] concerns Aβ42. Briefly: Screening for γ-secretase-modulating activity: Aβ42 in supernatant of SKNBE2 cells carrying APP 695-wild type (Alphalisa). Type of series: cell-based. The note with it: Homo sapiens, overnight incubation, cell supernatant. The protocol: (§1) Screening was carried out using SKNBE2 cells carrying the APP 695-wild type, grown in Dulbecco's Modified Eagle's Medium/Nutrient mixture F-12 (DMEM/NUT-mix F-12) (HAM) provided by Invitrogen (cat no. 10371-029) containing 5% Serum/Fe supplemented with 1% non-essential amino acids, 1-glutamine 2 mM, Hepes 15 mM, penicillin 50 U/ml (units/ml) en streptomycin 50 µg/ml. Cells were grown to near confluency.
(§2) The screening was performed using a modification of the assay as described in Citron et al (1997) Nature Medicine 3: 67. Briefly, cells were plated in a 384-well plate at 10^4 cells/well in Ultraculture (Lonza, BE12-725F) supplemented with 1% glutamine (Invitrogen, 25030-024), 1% non-essential amino acid (NEAA), penicillin 50 U/ml en streptomycin […] in the presence of test compound at different test concentrations. The cell/compound mixture was incubated overnight at 37° C., 5% CO2. The next day the media were assayed by two sandwich immuno-assays, for Aβ42 and Aβtotal.
(§3) Aβtotal and Aβ42 concentrations were quantified in the cell supernatant using the Aphalisa technology (Perkin Elmer). Alphalisa is a sandwich assay using biotinylated antibody attached to streptavidin coated donorbeads and antibody conjugated to acceptor beads. In the presence of antigen, the beads come into close proximity. The excitation of the donor beads provokes the release of singlet oxygen molecules that trigger a cascade of energy transfer in the acceptor beads, resulting in light emission.
(§4) To quantify the amount of Aβ42 in the cell supernatant, monoclonal antibody specific to the C-terminus of Aβ42 (JRF/cAB42/26) was coupled to the receptor beads and biotinylated antibody specific to the N-terminus of Aβ (JRF/ABN/25) was used to react with the donor beads. T quantify the amount of Aβtotal in the cell supernatant, monoclonal antibody specifc to the N-terminus of Aβ (JRF/AβN/25) was coupled to the receptor beads and biotinylated antibody specific to the mid region of Aβ (biotinylated 4G8) was used to react with the donor beads.
(§5) To obtain the values reported in Table 3, the data are calculated as percentage of the maximum amount of amyloid Beta 42 measured in the absence of the test compound. The sigmoidal dose response curves were analyzed using non-linear regression analysis with percentage of the control plotted against the log concentration of the compound. A 4-parameter equation was used to determine the IC50.
For orientation: Bead proximity is the source of the signal in Alpha formats.

Series [2] relates to Aβtotal. Briefly: Screening for γ-secretase-modulating activity: Aβtotal in supernatant of SKNBE2 cells carrying APP 695-wild type (Alphalisa). Type of series: cell-based. The note with it: Homo sapiens, overnight incubation, cell supernatant. The protocol: as §1, §2, §3, §4, §5
In series [3] the test system is Aβ42. Briefly: In vivo efficacy: brain soluble Aβ42 lowering in non-transgenic animals (ELISA). More on the design: species or system mouse. The following applies: dose 30 mg/kg oral dosing; brain soluble fraction, 4 h after dose; untreated animals (Ctrl) set at 100. From the text:
(§6) To determine whether acute administration of an Aβ42 lowering agent would reduce Aβ42 levels in vivo, non-transgenic rodents, e.g. mice or rats were used. Animals treated with the Aβ42 lowering agent were examined and compared to those untreated or treated with vehicle and brain levels of soluble Aβ42 and total Aβ were quantitated by standard techniques, for example, using ELISA. Treatment periods varied from hours (h) to days and were adjusted based on the results of the Aβ42 lowering once a time course of onset of effect could be established.
(§7) A typical protocol for measuring Aβ42 lowering in vivo is shown but it is only one of many variations that could be used to optimize the levels of detectable A3. For example, Aβ42 lowering compounds were formulated in 20% of Captisol® (a sulfobutyl ether of β-cyclodextrin) in water or 20% hydroxypropyl 0 cyclodextrin. The Aβ42 lowering agents were administered as a single oral dose or by any acceptable route of administration to overnight fasted animals. After 4 h, the animals were sacrificed and Aβ42 levels were analysed.
(§8) Blood was collected by decapitation and exsanguinations in EDTA-treated collection tubes. […] The left hemisphere was stored at −18° C. for quantitative analysis of test compound levels. […]
(§9) Mouse brains from non-transgenic animals were resuspended in 8 volumes of 0.4% DEA (diethylamine)/50 mM NaCl containing protease inhibitors (Roche-11873580001 or 04693159001) per gram of tissue, e.g. for 0.158 g brain, add 1.264 ml of 0.4% DEA. […] Nine parts of supernatant were neutralized with 1 part 0.5 M Tris-HCl pH 6.8 and used to quantify Aβtotal and Aβ42.
(§10) To quantify the amount of Aβtotal and Aβ42 in the soluble fraction of the brain homogenates, Enzyme-Linked-Immunosorbent-Assays were used. […] Following this incubation and subsequent wash steps the ELISA for Aβ42 quantification was finished by addition of Quanta Blu fluorogenic peroxidase substrate according to the manufacturer's instructions (Pierce Corp., Rockford, Il). A reading was performed after 10 to 15 min (excitation 320 nm/emission 420 nm). […]

The subject of series [4] is Aβtotal. Description: In vivo efficacy: brain soluble Aβtotal in non-transgenic animals (ELISA). More on the design: species or system mouse. The following applies: dose 30 mg/kg oral dosing; brain soluble fraction, 4 h after dose; untreated animals (Ctrl) set at 100.
Excerpt: as §6, §7, §8, §9, §10
(An ELISA detects its analyte on a solid surface through an enzyme-linked reagent.)

Usually IC50 stands for the point on the concentration scale where inhibition reaches its midpoint. Read a high IC50 as a need for much substance. As to `COc1ccc(N2CCN(c3nc(Nc4ccccc4C(F)(F)F)n(C)n3)CC2(C)C)cc1` [Compound 2, 3-[4-(4-methoxyphenyl)-3,3-dimethyl-1-piperazinyl]-1-methyl-N-[2-(trifluoromethyl)phenyl]-1H-1,2,4-triazol-5-amine], the IC50 with Aβ42 [1] was 0.09 µM; in the series on Aβtotal [2], over 10 µM.
The melting point is the temperature of the solid-liquid transition. Take `Cc1cc(OC2CCN(c3nc(Nc4cc(C(F)(F)F)ccc4F)n(C)n3)CC2)ncn1` [Compound 8, N-[2-fluoro-5-(trifluoromethyl)phenyl]-1-methyl-3-[4-[(6-methyl-4-pyrimidinyl)oxy]-1-piperidinyl]-1H-1,2,4-triazol-5-amine]: the melting point was determined as 158 °C. In the series with Aβ42 [1], this compound returned an IC50 of 0.95 µM. Moreover, the IC50 with Aβtotal [2] is over 10 µM.
On to `COc1ccc(N2CCN(c3nc(Nc4cccc(F)c4C(F)(F)F)n(C)n3)CC2(C)C)cc1` [Compound 3, N-[3-fluoro-2-(trifluoromethyl)phenyl]-3-[4-(4-methoxyphenyl)-3,3-dimethyl-1-piperazinyl]-1-methyl-1H-1,2,4-triazol-5-amine], for which the IC50 in the series on Aβ42 [1] is 0.05 µM; with Aβtotal [2] it was over 10 µM.
For the compound `COc1ccc(N2CCN(c3nc(Nc4ccc(F)cc4C)n(C)n3)CC2(C)C)cc1` [Compound 6, N-(4-fluoro-2-methylphenyl)-3-[4-(4-methoxyphenyl)-3,3-dimethyl-1-piperazinyl]-1-methyl-1H-1,2,4-triazol-5-amine.1.2HCl. 1.5H2O], the IC50 in the series with Aβ42 [1] was 0.05 µM; in the series on Aβtotal [2] it was over 10 µM. The “Aβ42 (% vs Ctrl)_Mean” value with Aβ42 [3] is 45 % vs Ctrl. For the same compound, the “Aβtotal (% vs Ctrl)_Mean” value with Aβtotal [4] stood at 109 % vs Ctrl.
On the same counts, the results for `COc1ccc(N2CCN(c3nc(Nc4cc(C(F)(F)F)ccc4F)n(C)n3)CC2(C)C)cc1` [Compound 14, N-[2-fluoro-5-(trifluoromethyl)phenyl]-3-[4-(4-methoxyphenyl)-3,3-dimethyl-1-piperazinyl]-1-methyl-1H-1,2,4-triazol-5-amine] are 0.11 µM, over 10 µM, 78 % vs Ctrl and 111 % vs Ctrl.
Consider `COc1ccc(N2CCN(c3nc(Nc4cccc(OC(F)(F)F)c4)n(C)n3)CC2(C)C)cc1` [Compound 4, 3-[4-(4-methoxyphenyl)-3,3-dimethyl-1-piperazinyl]-1-methyl-N-[3-(trifluoromethoxy)phenyl]-1H-1,2,4-triazol-5-amine.HCl], for which the values for the concentration for half-maximal inhibition (IC50) in the series with Aβ42 [1] and with Aβtotal [2] were 0.07 µM and over 10 µM, respectively.
On the same counts, the results for `COc1ccc(N2CCN(c3nc(Nc4cc(F)cc(C(F)(F)F)c4)n(C)n3)CC2(C)C)cc1` [Compound 5, N-[3-fluoro-5-(trifluoromethyl)phenyl]-3-[4-(4-methoxyphenyl)-3,3-dimethyl-1-piperazinyl]-1-methyl-1H-1,2,4-triazol-5-amine.0.8HCl] are 0.14 µM and over 10 µM.
Taken in the same sequence, the figures for `Cn1nc(N2CCC(Oc3ccncc3)CC2)nc1Nc1cc(C(F)(F)F)ccc1F` [Compound 7, N-[2-fluoro-5-(trifluoromethyl)phenyl]-1-methyl-3-[4-(4-pyridinyloxy)-1-piperidinyl]-1H-1,2,4-triazol-5-amine] were 0.72 µM and over 10 µM.
For `COc1ccc(N2CCN(c3nc(Nc4cc(C(F)(F)F)ccc4F)n(C)n3)CC2)cc1` [Compound 9, N-[2-fluoro-5-(trifluoromethyl)phenyl]-3-[4-(4-methoxyphenyl)-1-piperazinyl]-1-methyl-1H-1,2,4-triazol-5-amine], the melting point turned out to be 145.4 °C. The IC50 in the series on Aβ42 [1] was 0.56 µM. In the series with Aβtotal [2], this compound yielded an IC50 of over 10 µM.
Taken in the same sequence, the figures for `Cc1cc(OC2CCN(c3nc(Nc4cc(C(F)(F)F)ccc4F)n(C)n3)CC2)ccn1` [Compound 15, N-[2-fluoro-5-(trifluoromethyl)phenyl]-1-methyl-3-[4-[(2-methyl-4-pyridinyl)oxy]-1-piperidinyl]-1H-1,2,4-triazol-5-amine] were 177.4 °C, 0.25 µM and over 10 µM.
On the same counts, the results for `Cn1nc(N2CCN(Cc3ccncc3)CC2)nc1Nc1cc(C(F)(F)F)ccc1F` [Compound 12, N-[2-fluoro-5-(trifluoromethyl)phenyl]-1-methyl-3-[4-(4-pyridinylmethyl)-1-piperazinyl]-1H-1,2,4-triazol-5-amine] are 161.4 °C, over 10 µM and over 10 µM.
With `Cc1cc(CC2CCN(c3nc(Nc4cc(C(F)(F)F)ccc4F)n(C)n3)CC2)ccn1` [Compound 11, N-[2-fluoro-5-(trifluoromethyl)phenyl]-1-methyl-3-[4-[(2-methyl-4-pyridinyl)methyl]-1-piperidinyl]-1H-1,2,4-triazol-5-amine.HCl.H2O], the half-inhibitory concentration (IC50) in the series with Aβ42 [1] is 6.92 µM; with Aβtotal [2] it was over 10 µM.
With `COc1ccc(N2CCN(c3nc(-c4ccc(F)cc4)n(C)n3)CC2)cc1` [Compound 16, 1-[5-(4-fluorophenyl)-1-methyl-1H-1,2,4-triazol-3-yl]-4-(4-methoxyphenyl)-piperazine], the melting point came to 191.6 °C. For the same compound, it took 4.07 µM to reach half-maximal inhibition in the series with Aβ42 [1] (IC50). Also, the IC50 with Aβtotal [2] is over 10 µM.
On the same counts, the results for `Cn1nc(N2CCN(c3ccncc3)CC2)nc1Nc1cc(C(F)(F)F)ccc1F` [Compound 10, N-[2-fluoro-5-(trifluoromethyl)phenyl]-1-methyl-3-[4-(4-pyridinyl)-1-piperazinyl]-1H-1,2,4-triazol-5-amine] are 261.8 °C, 4.9 µM and over 10 µM.
